What was measured:
Assay in all cases: relative viability (nuclei count vs DMSO), 5 days (fraction); higher = more cells survive
HOP-62 = system: HOP-62
Summary of the method: (§1)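 Relative viability was taken as the ratio of nuclei in treated wells to nuclei in vehicle wells. Lung cancer cell lines in 1536-well plates received compounds by pin tool one day after seeding, either one drug alone or a fixed anchor-drug dose plus five library-drug doses (not always all listed) in √10 steps. Nuclei were counted on 4× images after 5 days of treatment, and values are medians of duplicate plates.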

ABC-1 = system: ABC-1
Summary of the method: as §1

COR-L 105 = system: COR-L 105
Summary of the method: as §1

NCI-H2126 = system: NCI-H2126
Summary of the method: as §1

CAL-12T = system: CAL-12T
Summary of the method: as §1

NCI-H2085 = system: NCI-H2085
Summary of the method: as §1

NCI-H1755 = system: NCI-H1755
Summary of the method: as §1

UMC-11 = system: UMC-11
Summary of the method: as §1

NCI-H1915 = system: NCI-H1915
Summary of the method: as §1

HCC-15 = system: HCC-15
Summary of the method: as §1

ChaGo-K-1 = system: ChaGo-K-1
Summary of the method: as §1

NCI-H3122 = system: NCI-H3122
Summary of the method: as §1

NCI-H322M = system: NCI-H322M
Summary of the method: as §1

NCI-H1975 = system: NCI-H1975
Summary of the method: as §1

HCC-78 = system: HCC-78
Summary of the method: as §1

NCI-H358 = system: NCI-H358
Summary of the method: as §1

NCI-H441 = system: NCI-H441
Summary of the method: as §1

NCI-H2023 = system: NCI-H2023
Summary of the method: as §1

NCI-H1666 = system: NCI-H1666
Summary of the method: as §1

LXF-289 = system: LXF-289
Summary of the method: as §1

EMC-BAC-2 = system: EMC-BAC-2
Summary of the method: as §1

EPLC-272H = system: EPLC-272H
Summary of the method: as §1

SMILES: CCN(CC)CCCCNc1ncc2cc(-c3cc(OC)cc(OC)c3)c(NC(=O)NC(C)(C)C)nc2n1 + CC(=O)c1c(C)c2cnc(Nc3ccc(N4CCNCC4)cn3)nc2n(C2CCCC2)c1=O [Palbociclib] (partner 0.5 µM)
- relative viability (HOP-62; first compound 0.01 µM): 0.463
- relative viability (HOP-62; first compound 0.03162 µM): 0.455
- relative viability (HOP-62; first compound 0.1 µM): 0.481
- relative viability (HOP-62; first compound 0.3162 µM): 0.425
- relative viability (HOP-62; first compound 1 µM): 0.45
- relative viability (ABC-1; first compound 0.03162 µM): 0.968
- relative viability (ABC-1; first compound 0.1 µM): 0.724
- relative viability (ABC-1; first compound 0.3162 µM): 0.832
- relative viability (ABC-1; first compound 1 µM): 0.574
- relative viability (COR-L 105; first compound 0.01 µM): 0.398
- relative viability (COR-L 105; first compound 0.03162 µM): 0.393
- relative viability (COR-L 105; first compound 0.1 µM): 0.427
- relative viability (COR-L 105; first compound 0.3162 µM): 0.423
- relative viability (COR-L 105; first compound 1 µM): 0.405
- relative viability (NCI-H2126; first compound 0.01 µM): 0.353
- relative viability (NCI-H2126; first compound 0.03162 µM): 0.37
- relative viability (NCI-H2126; first compound 0.1 µM): 0.399
- relative viability (NCI-H2126; first compound 0.3162 µM): 0.345
- relative viability (NCI-H2126; first compound 1 µM): 0.355
- relative viability (CAL-12T; first compound 0.01 µM): 0.411
- relative viability (CAL-12T; first compound 0.03162 µM): 0.456
- relative viability (CAL-12T; first compound 0.1 µM): 0.518
- relative viability (CAL-12T; first compound 0.3162 µM): 0.419
- relative viability (CAL-12T; first compound 1 µM): 0.408
- relative viability (NCI-H2085; first compound 0.01 µM): 0.466
- relative viability (NCI-H2085; first compound 0.03162 µM): 0.45
- relative viability (NCI-H2085; first compound 0.1 µM): 0.443
- relative viability (NCI-H2085; first compound 0.3162 µM): 0.468
- relative viability (NCI-H2085; first compound 1 µM): 0.457
- relative viability (NCI-H1755; first compound 0.01 µM): 0.474
- relative viability (NCI-H1755; first compound 0.03162 µM): 0.448
- relative viability (NCI-H1755; first compound 0.1 µM): 0.462
- relative viability (NCI-H1755; first compound 0.3162 µM): 0.472
- relative viability (NCI-H1755; first compound 1 µM): 0.459
- relative viability (UMC-11; first compound 0.01 µM): 0.338
- relative viability (UMC-11; first compound 0.03162 µM): 0.305
- relative viability (UMC-11; first compound 0.1 µM): 0.351
- relative viability (UMC-11; first compound 0.3162 µM): 0.313
- relative viability (UMC-11; first compound 1 µM): 0.343
- relative viability (NCI-H1915; first compound 0.01 µM): 0.655
- relative viability (NCI-H1915; first compound 0.03162 µM): 0.528
- relative viability (NCI-H1915; first compound 0.1 µM): 0.557
- relative viability (NCI-H1915; first compound 0.3162 µM): 0.546
- relative viability (NCI-H1915; first compound 1 µM): 0.496
- relative viability (HCC-15; first compound 0.01 µM): 0.82
- relative viability (HCC-15; first compound 0.03162 µM): 0.826
- relative viability (HCC-15; first compound 0.1 µM): 0.826
- relative viability (HCC-15; first compound 0.3162 µM): 0.797
- relative viability (HCC-15; first compound 1 µM): 0.729
- relative viability (ChaGo-K-1; first compound 0.01 µM): 0.98
- relative viability (ChaGo-K-1; first compound 0.03162 µM): 0.915
- relative viability (ChaGo-K-1; first compound 0.1 µM): 1.08
- relative viability (ChaGo-K-1; first compound 0.3162 µM): 0.997
- relative viability (ChaGo-K-1; first compound 1 µM): 0.823
- relative viability (NCI-H3122; first compound 0.01 µM): 0.184
- relative viability (NCI-H3122; first compound 0.03162 µM): 0.175
- relative viability (NCI-H3122; first compound 0.1 µM): 0.157
- relative viability (NCI-H3122; first compound 0.3162 µM): 0.194
- relative viability (NCI-H3122; first compound 1 µM): 0.179
- relative viability (NCI-H322M; first compound 0.01 µM): 0.516
- relative viability (NCI-H322M; first compound 0.03162 µM): 0.45
- relative viability (NCI-H322M; first compound 0.1 µM): 0.508
- relative viability (NCI-H322M; first compound 0.3162 µM): 0.504
- relative viability (NCI-H322M; first compound 1 µM): 0.474
- relative viability (NCI-H1975; first compound 0.01 µM): 0.608
- relative viability (NCI-H1975; first compound 0.03162 µM): 0.498
- relative viability (NCI-H1975; first compound 0.1 µM): 0.589
- relative viability (NCI-H1975; first compound 0.3162 µM): 0.697
- relative viability (NCI-H1975; first compound 1 µM): 0.475
- relative viability (HCC-78; first compound 0.01 µM): 0.465
- relative viability (HCC-78; first compound 0.03162 µM): 0.448
- relative viability (HCC-78; first compound 0.1 µM): 0.525
- relative viability (HCC-78; first compound 0.3162 µM): 0.45
- relative viability (HCC-78; first compound 1 µM): 0.465
- relative viability (NCI-H358; first compound 0.01 µM): 0.146
- relative viability (NCI-H358; first compound 0.03162 µM): 0.123
- relative viability (NCI-H358; first compound 0.1 µM): 0.159
- relative viability (NCI-H358; first compound 0.3162 µM): 0.139
- relative viability (NCI-H358; first compound 1 µM): 0.136
- relative viability (NCI-H441; first compound 0.01 µM): 0.193
- relative viability (NCI-H441; first compound 0.03162 µM): 0.204
- relative viability (NCI-H441; first compound 0.1 µM): 0.198
- relative viability (NCI-H441; first compound 0.3162 µM): 0.261
- relative viability (NCI-H441; first compound 1 µM): 0.193
- relative viability (NCI-H2023; first compound 0.01 µM): 0.317
- relative viability (NCI-H2023; first compound 0.03162 µM): 0.32
- relative viability (NCI-H2023; first compound 0.1 µM): 0.348
- relative viability (NCI-H2023; first compound 0.3162 µM): 0.347
- relative viability (NCI-H2023; first compound 1 µM): 0.291
- relative viability (NCI-H1666; first compound 0.01 µM): 0.666
- relative viability (NCI-H1666; first compound 0.03162 µM): 0.626
- relative viability (NCI-H1666; first compound 0.1 µM): 0.613
- relative viability (NCI-H1666; first compound 0.3162 µM): 0.649
- relative viability (NCI-H1666; first compound 1 µM): 0.613
- relative viability (LXF-289; first compound 0.01 µM): 0.628
- relative viability (LXF-289; first compound 0.03162 µM): 0.581
- relative viability (LXF-289; first compound 0.1 µM): 0.673
- relative viability (LXF-289; first compound 0.3162 µM): 0.61
- relative viability (LXF-289; first compound 1 µM): 0.559
- relative viability (EMC-BAC-2; first compound 0.03162 µM): 0.501
- relative viability (EMC-BAC-2; first compound 0.1 µM): 0.525
- relative viability (EMC-BAC-2; first compound 0.3162 µM): 0.536
- relative viability (EMC-BAC-2; first compound 1 µM): 0.527
- relative viability (EPLC-272H; first compound 0.01 µM): 0.286
- relative viability (EPLC-272H; first compound 0.1 µM): 0.33
- relative viability (EPLC-272H; first compound 0.3162 µM): 0.284
- relative viability (EPLC-272H; first compound 1 µM): 0.339
